Entries after “also recorded” stand apart in the source; their conditions may differ.
Key:
[1] = tested on: Human ESCs (CyT203); assay: Differentiation of hESCs in growth factor conditions, marker gene expression by QPCR; type: cell-based; details: for expression of brachyury: RPMI, 0% FBS day 1, 0.2% day 2, 2% days 3-5, activin A 100 ng/ml at 36 and 48 hours; for differentiation of hESCs to initial cell fate, as indicated by marker expression: cultures lacking insulin, follistatin 100 ng/ml, noggin 200 ng/ml, BMP4 100 ng/ml, 5 days
Protocol: Human ESCs (CyT203) were grown in growth media on a mouse fibroblast feeder layer. On the day differentiation began, cultures were washed once with phosphate buffered saline (PBS) and then placed into differentiation media. Differentiation media consisted of RPMI with penicillin/streptomycin and Glutamax containing 0% FBS on the first day, 0.2% v/v FBS on the second day and 2% v/v FBS on days 3-5. Growth factors were used at the following concentrations: activin A at 100 ng/ml, follistatin at 100 ng/ml, noggin at 200 ng/ml, BMP4 at 100 ng/ml, and SU5402 at 5 μM. Individual cultures received the same growth factor cocktail with or without the addition of 10 μg/ml human recombinant insulin for all 5 days of differentiation as indicated. Samples were taken at daily intervals for analysis of gene expression using QPCR to monitor the differentiation of the populations in response to the different growth factor treatments. At the conclusion of the treatment phase the cells were fixed in 4% paraformaldehyde for 15 min at room temperature and reacted with antibodies to SOX17 or PAX6. Human embryonic stem cells (CyT203) were grown in growth media on a mouse fibroblast feeder layer. On the day differentiation began, cultures were washed once with phosphate buffered saline (PBS) and then placed into differentiation media. Differentiation media consisted of RPMI with penicillin/streptomycin and Glutamax containing 0% FBS on the first day, 0.2% v/v FBS on the second day and 2% v/v FBS on days 3-5. Cultures were treated with SU5402 at 5 μM with or without the addition of human recombinant insulin at 10 μg/ml. Individual cultures received the same growth factor cocktail for all 5 days of differentiation as indicated. Samples were taken at daily intervals for analysis of gene expression using QPCR to monitor the differentiation of the populations in response to the different growth factor treatments. At the conclusion of the treatment phase the cells were fixed in 4% paraformaldehyde for 15 min at room temperature and reacted with antibodies to SOX17, OCT4 or PAX6.

[2] = tested on: Human ESCs (CyT203); assay: Immunofluorescence of treated hESCs with antibodies to SOX17, OCT4 or PAX6; type: cell-based
Protocol: Human ESCs (CyT203) were grown in growth media on a mouse fibroblast feeder layer. On the day differentiation began, cultures were washed once with phosphate buffered saline (PBS) and then placed into differentiation media. Differentiation media consisted of RPMI with penicillin/streptomycin and Glutamax containing 0% FBS on the first day, 0.2% v/v FBS on the second day and 2% v/v FBS on days 3-5. Growth factors were used at the following concentrations: activin A at 100 ng/ml, follistatin at 100 ng/ml, noggin at 200 ng/ml, BMP4 at 100 ng/ml, and SU5402 at 5 μM. Individual cultures received the same growth factor cocktail with or without the addition of 10 μg/ml human recombinant insulin for all 5 days of differentiation as indicated. Samples were taken at daily intervals for analysis of gene expression using QPCR to monitor the differentiation of the populations in response to the different growth factor treatments. At the conclusion of the treatment phase the cells were fixed in 4% paraformaldehyde for 15 min at room temperature and reacted with antibodies to SOX17 or PAX6.
Human embryonic stem cells (CyT203) were grown in growth media on a mouse fibroblast feeder layer. On the day differentiation began, cultures were washed once with phosphate buffered saline (PBS) and then placed into differentiation media. Differentiation media consisted of RPMI with penicillin/streptomycin and Glutamax containing 0% FBS on the first day, 0.2% v/v FBS on the second day and 2% v/v FBS on days 3-5. Cultures were treated with SU5402 at 5 μM with or without the addition of human recombinant insulin at 10 μg/ml. Individual cultures received the same growth factor cocktail for all 5 days of differentiation as indicated. Samples were taken at daily intervals for analysis of gene expression using QPCR to monitor the differentiation of the populations in response to the different growth factor treatments. At the conclusion of the treatment phase the cells were fixed in 4% paraformaldehyde for 15 min at room temperature and reacted with antibodies to SOX17, OCT4 or PAX6.

[3] = QPCR, activin A 100 ng/ml, SU5402 5 μM
[4] = QPCR, insulin 10 μg/ml added to growth factor treatment
[5] = QPCR, no insulin, continued presence of activin A 100 ng/ml

In the case of `Cc1c[nH]c(/C=C2\C(=O)Nc3ccccc32)c1CCC(=O)O` [SU5402, reference compound], the expression of brachyury ([1]; QPCR, no insulin, SU5402 5 μM) is reported as “elevated expression”, the “differentiation of hESCs to initial cell fate, as indicated by marker expression” value [1, 3] is reported as “make all available fate choices; also recorded: made all available fate choices” and the “expression of CDX2” value ([1]; QPCR, no insulin, SU5402 5 μM) is reported as “elevated expression”. The “expression of SOX1” value ([1]; QPCR, no insulin, SU5402 5 μM) was “elevated expression” and the “expression of SOX7” value ([1]; QPCR, no insulin, SU5402 5 μM) was “elevated expression”.

“insulin: human recombinant insulin, 10 μg/ml, signals through the PI-3-kinase pathway” was tested, and the “production of cells of each of the primary lineages” value ([1]; 10 μg/ml human recombinant insulin added to the growth factor cocktail, all 5 days) was “significantly reduced”, the “expression of CDX2 in the presence of insulin” value [1, 4] was “decreased expression” and the “expression of PAX6 in the presence of insulin” value [1, 4] was “decreased expression”. For the same molecule, the “expression of SOX1 in the presence of insulin” value [1, 4] was “decreased expression”, the “expression of SOX7 in the presence of insulin” value [1, 4] was “decreased expression” and the “expression of WNT3A in the presence of insulin” value [1, 4] was “decreased expression”. The “expression of brachyury in the presence of insulin” value [1, 4] was “decreased expression”, the “generalized differentiation under SU5402” value ([1]; SU5402 5 μM plus insulin 10 μg/ml, brachyury, SOX1, SOX7, CDX2) was “inhibited strongly” and the “efficiency with which the hESCs differentiate to each of the 4 primary lineages” value ([1]; high levels of insulin (10 μg/ml) in the media) was “decrease”. The OCT4-positive cell numbers ([2]; high levels of insulin present) was “maintenance”, the “number of SOX17-positive cells in response to activin A treatment” value ([2]; high levels of insulin present) was “decrease” and the “number of PAX6-positive cells in response to noggin/follistatin treatment” value ([2]; insulin in the media) was “reduced”.

B1: activin A: growth factor used at 100 ng/ml as differentiation factor (protein, UniProt P08476 311-426, looked up)
Inhibin beta A chain: GLECDGKVNICCKKQFFVSFKDIGWNDWIIAPSGYHANYCEGECPSHIAGTSGSSLSFHSTVINHYRMRGHSPFANLKSCCVPTKLRPMSMLYYDDGQNIIKKDIQNMIVEECGCS
modifications: Inhibin beta A chain
notes: growth factor used at 100 ng/ml as differentiation factor
For B1, the expression of brachyury ([1]; QPCR, no insulin, SU5402 5 μM) was “elevated expression”, the “differentiation of hESCs to initial cell fate, as indicated by marker expression” value [1, 3] was “induced initial fate commitment to mesendoderm” and the “PAX6 mRNA” value ([1]; QPCR, no insulin, activin A 100 ng/ml) was “induction”. The “expression of WNT3A” value ([1]; QPCR, no insulin, activin A 100 ng/ml, at 36 and 48 hours) was “elevated expression”, the “expression of GSC” value [1, 5] was “elevated expression” and the “expression of SOX17” value [1, 5] was “elevated expression”. For the same molecule, the “further differentiation of the mesendoderm” value ([1]; continued presence of activin A 100 ng/ml, indicated by SOX17 and GSC) was “further differentiated to definitive endoderm”.
